Test results from patent publication US20260363987A1, “Novel Peptide Exhibiting Skin Condition Improvement Activity and Cosmetic Composition Containing Same” (DAEBONG LS CO., LTD., priority 2023, published 2026).

Legend:
B16F10 cells = test: Melanin synthesis inhibition in α-MSH-treated melanocytes; assay type: cell-based, mouse; conditions: 72 hours
Protocol: Mouse-derived melanocytes (B16F10 cells) were obtained from the American Type Culture Collection (ATCC) and used. The cells were cultured in Dulbecco's Modified Eagle's Medium (DMEM) supplemented with 1% penicillin-streptomycin and 10% fetal bovine serum (FBS) at 37 °C in a 5% CO2 incubator, and subcultured every 3 to 4 days.
B16F10 cells were seeded at 6.0×10^4 cells/well in a 6-well plate and cultured for 24 hours at 37 °C in a 5% CO2 incubator. The culture medium was then replaced with phenol red-free, serum-free DMEM, followed by treatment with α-MSH, a melanin production-inducing hormone, and the peptide from the above Preparation Example at concentrations ranging from 1 to 100 μM. The cells were incubated for 72 hours, after which they were collected and lysed with 1 N NaOH in an 80 °C heating block to dissolve intracellular melanin. The absorbance of the resulting solution was measured at 490 nm. The control group was treated with arbutin at a concentration of 500 μg/mL.

NHDF cells = test: Procollagen Type I Peptide (PIP) production, EIA; assay type: cell-based, human
Protocol: Normal Human Dermal Fibroblasts (NHDF) were obtained from Lonza (Lonza Walkersville, Inc.) and cultured in FBM (Fibroblast Basal Medium) supplemented with 0.1% hFGF-B, insulin, GA-1000, and 2% FBS at 37 °C in a 5% CO2 incubator. Subculture was performed every 2 to 3 days.
NHDF cells were seeded at 2.0×10^4 cells/well in a 24-well plate and incubated for 24 hours at 37 °C in a 5% CO2 incubator. After incubation, the culture medium was replaced with serum-free FBM, and the peptide prepared in the above Example was applied at concentrations of 1-100 μM, followed by incubation for 24 hours. The supernatant from each experimental group was collected, and the amount of procollagen released into the medium was measured. The positive control group was treated with ascorbic acid at a concentration of 0.001 v/v %. Measurement of procollagen levels was performed using a Procollagen Type I Peptide (PIP) EIA Kit (Takara Biomedical Co.) according to the manufacturer's protocol. The quantitative results of procollagen type I peptide production following treatment with the peptide of the Example are shown in Table 2 and FIG. 3.

HaCaT cells = test: Hyaluronic acid (HA) production, ELISA; assay type: cell-based, human
Protocol: The HaCaT human keratinocyte cell line was obtained from Cell Line Service GmbH (Germany). The cells were cultured in DMEM containing 1% penicillin-streptomycin and 10% fetal bovine serum (FBS) at 37 °C in a 5% CO2 incubator, and subculture was performed every 2 to 3 days.
HaCaT cells were seeded at 1.0×10^5 cells/well in a 24-well plate and incubated for 24 hours at 37 °C in a 5% CO2 incubator. After incubation, the culture medium was replaced with serum-free DMEM, and the peptide prepared in the above Example was applied at concentrations of 50-200 μM, followed by incubation for 24 hours. The supernatant from each experimental group was collected, and the amount of hyaluronic acid (HA) released into the medium was measured. The positive control group was treated with N-acetylglucosamine at a concentration of 10 mM. Measurement of hyaluronic acid production was conducted using a Hyaluronic Acid ELISA Kit (Cusabio Biotechnology Co., Ltd.) following the manufacturer's protocol.

Molecule: OC[C@H]1O[C@@H](Oc2ccc(O)cc2)[C@H](O)[C@@H](O)[C@@H]1O [Arbutin, arbutin, reference compound]
- activity at 500 µg/mL (B16F10 cells; Mus musculus, B16-F10, 500 μg/mL, control, with α-MSH (200 nM), α-MSH alone = 100 ± 3.6, untreated = 75 ± 3.04, read-out: Melanin production): 59.6 ± 0.8%

Molecule: O=C1O[C@H]([C@@H](O)CO)C(O)=C1O [Asc.A, ascorbic acid, reference compound]
- activity at 10 µg/mL (NHDF cells; Homo sapiens, NHDF, 24 h, 10 μg/mL, positive control, untreated group = 100 ± 1.29): 159 ± 3.8%

Molecule: CC(=O)N[C@H]1C(O)O[C@H](CO)[C@@H](O)[C@@H]1O (stereo partly shown) [NAG, N-acetylglucosamine, reference compound]
- activity at 10000 µM (HaCaT cells; Homo sapiens, HaCaT, 24 h, 10 mM, positive control, untreated group = 100 ± 5.15): 125.5 ± 1.18%

Molecule: Ala-Ala-Gln-Pro-Arg (AAQPR; printed: Ala-Ala-Gln-Pro-Arg)
- Hyaluronic acid production (HaCaT cells; 50 μM, 24 hours, untreated group = 100 ± 5.15): 107.14 ± 1.08%
- Hyaluronic acid production (HaCaT cells; 100 μM, 24 hours, untreated group = 100 ± 5.15): 130.93 ± 0.59%
- Hyaluronic acid production (HaCaT cells; 200 μM, 24 hours, untreated group = 100 ± 5.15): 136.91 ± 6.87%
- hyaluronic acid production (in words) (HaCaT cells; 50-200 μM, 24 hours): increase in hyaluronic acid production
- Melanin production (B16F10 cells; 1 μM, with α-MSH (200 nM), α-MSH alone = 100 ± 3.6, untreated = 75 ± 3.04): 100.86 ± 4.32%
- Melanin production (B16F10 cells; 10 μM, with α-MSH (200 nM), α-MSH alone = 100 ± 3.6, untreated = 75 ± 3.04): 89.62 ± 2.95%
- Melanin production (B16F10 cells; 100 μM, with α-MSH (200 nM), α-MSH alone = 100 ± 3.6, untreated = 75 ± 3.04): 79.76 ± 4.18%
- melanin production (in words) (B16F10 cells; 1-100 μM, with α-MSH): inhibited melanin production
- Procollagen production (NHDF cells; 1 μM, 24 hours, untreated group = 100 ± 1.29): 105.45 ± 3.15%
- Procollagen production (NHDF cells; 10 μM, 24 hours, untreated group = 100 ± 1.29): 129.75 ± 9.74%
- Procollagen production (NHDF cells; 50 μM, 24 hours, untreated group = 100 ± 1.29): 132.64 ± 13.74%
- Procollagen production (NHDF cells; 100 μM, 24 hours, untreated group = 100 ± 1.29): 134.92 ± 1.3%
- procollagen production (in words) (NHDF cells; 1-100 μM, 24 hours): increase in procollagen production
